Laboratory results taken from paper PMC3836618, “The Flux of Phenolic Compounds through Silicone Membranes” (Pharmaceutics, 2013).

What was measured:
[1] = Flux of standard solute theophylline through silicone from propylene glycol (membrane integrity check, second application); type: in vitro ADME; details: each membrane after methanol leaching
Procedure: (§1) The flux values of the first and second application were determined by UV absorption.

[2] = set-up: method as in PMID 18588972; details: donor suspension in propylene glycol; cited from earlier work
[3] = Maximum flux through silicone membrane from water (diffusion cell, saturated donor suspension, 32 °C)
Procedure: The measurement of maximum flux through silicone was performed according to a literature procedure at 32 °C, except that the silicone membrane was in contact with the receptor for only 24 h to condition them. The receptor was a 7.1 pH phosphate buffer.
After the membranes were conditioned, the receptor phases were changed and the donor suspensions (first application, 1 mL) were applied; n = 3. The donor cells were sealed by Parafilm. Samples were taken from the receptor every 2–3 h after application. Following sample collection, the receptor phases were changed to ensure sink conditions, and the donor suspensions were either changed or had more solid/oil added to the existing suspension, depending upon the visible extent of depletion. After 4–5 sampling intervals, the donor suspensions were removed with methanol and the receptors were changed. The membranes were leached with methanol in the donor phase for 48–72 h with samples taken and receptor phases changed every 12–24 h to remove any residual phenol in the membrane.
as §1

[4] = set-up: method as in PMID 22602, PMID 16982163; details: cited from earlier work; for Exp. log JMHAQ: experimental maximum flux through human stratum corneum from water, Table 2; for Log JMHAQ: maximum flux through human stratum corneum from water, log value, Table 1
[5] = set-up: method as in PMID 22602, PMID 16982163; details: solubility in water, log value; cited from earlier work
[6] = set-up: method as in PMID 22602, PMID 16982163; details: octanol:water partition coefficient; cited from earlier work
[7] = set-up: method as in PMID 22602, PMID 16982163; details: solubility in octanol, log value; cited from earlier work
[8] = experimental maximum flux through silicone from water, Table 2
[9] = maximum flux through silicone from water, log value, 32 °C, receptor pH 7.1 phosphate buffer, n = 3, Table 1

SMILES | log JMPPG (log flux of theophylline through silicone from PG) [1] | log JMPPG (log flux of theophylline through silicone from PG), literature value [2] [log units] | Exp. log JMPAQ [3, 8] [μmole cm^−2 h^−1] | Log JMPAQ [3, 9] [μmole cm^−2 h^−1] | Exp. log JMHAQ [4] [μmole cm^−2 h^−1] | Log JMHAQ [4] [μmole cm^−2 h^−1] | Log SAQ [5] [μmole cm^−3] | Log KOCT:AQ [6] | Log SOCT [7] [μmole cm^−3] | Exp. log JMPAQ ([3]; not told) [μmole cm^−2 h^−1] | Log JMPAQ ([3]; not told, pH 7.1) [μmole cm^−2 h^−1]
Cn1c(=O)c2[nH]cnc2n(C)c1=O [theophylline] | within the standard deviation of the literature value | −2.68 ± 0.12 |  |  |  |  |  |  |  |  | 
Cc1cccc(O)c1 [compound 7, 3-methylphenol] |  |  | 1.61 | 1.61 | 0.54 | 0.54 | 2.36 | 1.96 | 4.32 |  | 
Cc1ccc(O)cc1 [compound 4, 4-methyl] |  |  | 1.62 | 1.62 | 0.53 | 0.53 | 2.29 | 1.95 | 4.24 |  | 
Oc1ccc(Cl)cc1Cl [compound 5, 2,4-dichloro] |  |  |  |  | 0.27 | 0.27 | 1.49 | 3.08 | 4.57 | 1.16 | 1.16
Cc1cc(O)cc(C)c1Cl [compound 2, 4-chloro-3,5-dimethylphenol] |  |  | −0.027 | −0.027 | −0.95 | −0.95 | 0.28 | 3.39 | 3.67 |  | 
Cc1cc(O)ccc1Cl [compound 1, 4-chloro-3-methyl] |  |  |  |  | 0.29 | 0.29 | 1.55 | 3.10 | 4.65 | 1.01 | 1.01
